Measurements published in ChEMBL document CHEMBL3714750, “Aryl sulfonamides” (2008).

target: T1, C-C chemokine receptor type 9 (Homo sapiens, UniProt P51686); assay: Antagonist activity against CCR9 in human MOLT4 cells assessed as inhibition of human recombinant TECK-induced calcium response pre-treated before TECK stimulation by Flou-4-AM dye based FLIPR assay; type: functional, cell-based, MOLT-4
T1 sequence (P51686 whole entry): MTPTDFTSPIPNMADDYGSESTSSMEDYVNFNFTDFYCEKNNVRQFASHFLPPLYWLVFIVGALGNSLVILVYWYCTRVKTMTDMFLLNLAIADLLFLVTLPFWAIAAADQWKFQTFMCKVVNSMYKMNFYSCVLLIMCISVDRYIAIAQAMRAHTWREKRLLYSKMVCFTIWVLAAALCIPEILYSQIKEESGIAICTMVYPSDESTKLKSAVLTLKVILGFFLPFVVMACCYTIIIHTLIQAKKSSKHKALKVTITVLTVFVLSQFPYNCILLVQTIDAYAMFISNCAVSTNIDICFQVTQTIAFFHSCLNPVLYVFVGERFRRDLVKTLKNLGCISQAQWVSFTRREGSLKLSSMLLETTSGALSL

Row | IC50 [µM] | Structure (SMILES)
1 | < 1 | Cc1ccc(C(=O)c2cc(Cl)ccc2NS(=O)(=O)c2ccc(-c3cnco3)cc2)cn1
2 | < 1 | Cc1ccc(C(=O)c2cc(Cl)ccc2NS(=O)(=O)c2ccc(C(C)(C)c3ncco3)cc2)c[n+]1[O-]
3 | > 1 | Cc1ccc(C(=O)c2cc(Cl)ccc2NS(=O)(=O)c2ccc(-c3cnc(C)o3)cc2)cn1
4 | > 1 | COc1ccc(S(=O)(=O)Nc2ccc(Cl)cc2C(=O)c2nccn2C)cc1
5 | < 1 | O=C(c1ccncc1)c1cc(Cl)ccc1NS(=O)(=O)c1ccc(I)cc1
6 | < 1 | CC(C)(C)c1ccc(S(=O)(=O)Nc2ccc(Cl)cc2C(=O)c2cccnc2)cc1
7 | > 1 | O=C(c1ccncc1)c1cc(Cl)ccc1NS(=O)(=O)c1ccc(-c2cncnc2)cc1
8 | < 1 | O=C(c1ccncc1)c1cc(Cl)ccc1NS(=O)(=O)c1ccc(-c2ccccc2)cc1
9 | < 1 | CC(=O)c1ccc(S(=O)(=O)Nc2ccc(Cl)cc2C(=O)c2ccc(C)[n+]([O-])c2)cc1
10 | > 1 | O=C(c1ccncc1)c1cc(Cl)ccc1NS(=O)(=O)c1ccc(-c2cc3ccccc3[nH]2)cc1
11 | < 1 | CC(C)(C)c1ccc(S(=O)(=O)Nc2ccc(Cl)cc2C(=O)c2ccncn2)cc1
12 | < 1 | CCc1ccc(S(=O)(=O)Nc2ccc(Cl)cc2C(=O)c2ccncc2)cc1
13 | < 1 | Cc1ncccc1C(=O)c1cc(Cl)ccc1NS(=O)(=O)c1ccc(C(C)(C)C)cc1
14 | < 1 | Cc1ncccc1C(=O)c1cc(Cl)ccc1NS(=O)(=O)c1ccc(OC(C)C)cc1
15 | < 1 | CC(C)(C)c1ccc(S(=O)(=O)Nc2ccc(Cl)cc2C(=O)c2ccccn2)cc1
16 | < 1 | Cc1ccc(C(=O)c2cc(Cl)ccc2NS(=O)(=O)c2ccc(C(C)(C)C)cc2)cn1
17 | < 1 | Cc1ccc(C(=O)c2cc(Cl)ccc2NS(=O)(=O)c2ccc(C3(C)CCOCC3)cc2)cn1
18 | > 1 | Cc1cccc(C(=O)c2cc(Cl)ccc2NS(=O)(=O)c2ccc(-c3cnc(C)o3)cc2)n1
19 | < 1 | Cc1cccc(C(=O)c2cc(Cl)ccc2NS(=O)(=O)c2ccc(C(C)(C)c3ncco3)cc2)n1

Row | IC50 [µM] | Structure (SMILES)
20 | < 1 | Cc1ccc(C(=O)c2cc(Cl)ccc2NS(=O)(=O)c2ccc(C(C)(C)c3ncco3)cc2)cn1
21 | < 1 | O=C(c1ccncc1)c1cc(Cl)ccc1NS(=O)(=O)c1ccc(-c2ncco2)cc1
22 | < 1 | Cc1ccc(C(=O)c2cc(Cl)ccc2NS(=O)(=O)c2ccc(-c3ocnc3C)cc2)cn1
23 | < 1 | Cc1ccc(C(=O)c2cc(Cl)ccc2NS(=O)(=O)c2ccc(C(C)(C)c3cnco3)cc2)cn1
24 | > 1 | Cc1ccc(C(=O)c2cc(Cl)ccc2NS(=O)(=O)c2ccc(-c3nnc(C)o3)cc2)cn1
25 | < 1 | Cc1cccc(C(=O)c2cc(Cl)ccc2NS(=O)(=O)c2ccc(-c3cnco3)cc2)n1
26 | > 1 | O=C(c1ccncn1)c1cc(Cl)ccc1NS(=O)(=O)c1ccc(-c2cnco2)cc1
27 | < 1 | CC(C)Oc1ccc(S(=O)(=O)Nc2ccc(Cl)cc2C(=O)c2cccnc2)cc1
28 | < 1 | Cc1cc(C(=O)c2cc(Cl)ccc2NS(=O)(=O)c2ccc(C(C)(C)C)cc2)ccn1
29 | < 1 | Cc1cc(C(=O)c2cc(Cl)ccc2NS(=O)(=O)c2ccc(OC(C)C)cc2)ccn1
30 | < 1 | Cc1noc(C)c1-c1ccc(S(=O)(=O)Nc2ccc(Cl)cc2C(=O)c2ccncc2)cc1
31 | < 1 | O=C(c1ccncc1)c1cc(Cl)ccc1NS(=O)(=O)c1ccc(-c2ccsc2)cc1
32 | > 1 | Cn1nc(C(=O)c2cc(Cl)ccc2NS(=O)(=O)c2ccc(C(C)(C)C)cc2)c2ccccc21
33 | < 1 | CC(C)(c1ccc(S(=O)(=O)Nc2ccc(Cl)cc2C(=O)c2ccncc2)cc1)c1ncco1
34 | < 1 | CC(C)(c1ccc(S(=O)(=O)Nc2ccc(Cl)cc2C(=O)c2ccnc(Cl)c2)cc1)c1ncco1
35 | < 1 | O=C(c1ccncc1)c1cc(Cl)ccc1NS(=O)(=O)c1ccc(-c2csnn2)cc1
36 | > 1 | Cc1nnc(-c2cccc(S(=O)(=O)Nc3ccc(Cl)cc3C(=O)c3ccncc3)c2)o1
37 | > 1 | O=C(c1ccncc1)c1cc(Cl)ccc1NS(=O)(=O)c1ccc(Cl)cc1
38 | < 1 | O=C(c1ccncc1)c1cc(Cl)ccc1NS(=O)(=O)c1ccc(-c2ccco2)cc1

More lines, now with the values behind:

Row | Structure (SMILES) | IC50 [µM]
39 | CC(C)(CO)c1ccc(S(=O)(=O)Nc2ccc(Cl)cc2C(=O)c2ccncc2)cc1 | < 1
40 | O=C(c1ccncc1)c1cc(Cl)ccc1NS(=O)(=O)c1ccc(N2CCNCC2)cc1 | > 1
41 | COc1ccc(S(=O)(=O)Nc2ccc(Cl)cc2C(=O)N2CCNCC2)cc1 | > 1
42 | COC(=O)CCc1ccc(S(=O)(=O)Nc2ccc(Cl)cc2C(=O)c2ccncc2)cc1 | < 1
43 | CS(=O)(=O)c1ccc(S(=O)(=O)Nc2ccc(Cl)cc2C(=O)c2ccc(Cl)[n+]([O-])c2)cc1 | < 1
44 | O=C(c1cccnc1)c1cc(Cl)ccc1NS(=O)(=O)c1ccc(OC(F)(F)F)cc1 | < 1
45 | CC(C)(C)c1ccc(S(=O)(=O)Nc2ccc(S(=O)(=O)N3CCCC3)cc2C(=O)c2cc[n+]([O-])cc2)cc1 | > 1
46 | Cn1nncc1C(=O)c1cc(Cl)ccc1NS(=O)(=O)c1ccc(C(C)(C)C)cc1 | < 1
47 | CC(C)(c1ccc(S(=O)(=O)Nc2ccc(Cl)cc2C(=O)c2ccncc2)cc1)c1cocn1 | < 1
48 | Cc1ccc(C(=O)c2cc(Cl)ccc2NS(=O)(=O)c2ccc(C(C)(C)C)cc2)c[n+]1[O-] | < 1
49 | O=C(c1cc[n+]([O-])cc1)c1cc(Cl)ccc1NS(=O)(=O)c1ccc(-c2ccoc2)cc1 | < 1
50 | CC(C)(C)c1ccc(S(=O)(=O)Nc2ccc(Cl)cc2C(=O)c2ccc(N3CCOCC3)nc2)cc1 | > 1
51 | CC(C)(C)OC(=O)n1cccc1-c1ccc(S(=O)(=O)Nc2ccc(Cl)cc2C(=O)c2ccncc2)cc1 | > 1
52 | COc1ccc(S(=O)(=O)Nc2ccc(Cl)cc2C(=O)NCc2ccccc2)cc1 | < 1
53 | O=C(c1ccncc1)c1cc(Cl)ccc1NS(=O)(=O)c1ccc(N2CCC2)cc1 | < 1
54 | CC(C)Sc1ccc(S(=O)(=O)Nc2ccc(Cl)cc2C(=O)c2ccncc2)cc1 | < 1
55 | CC(C)Oc1ccc(S(=O)(=O)Nc2ccc(Cl)cc2C(=O)c2ccncc2)cc1 | < 1
56 | O=C(c1ccncc1)c1cc(Cl)ccc1NS(=O)(=O)c1ccc(N2CCN(CC(F)(F)F)CC2)cc1 | > 1
57 | Cc1cc(C(=O)c2cc(Cl)ccc2NS(=O)(=O)c2ccc(OC(F)(F)F)cc2)ccn1 | < 1
58 | O=C(c1ccncc1)c1cc(Cl)ccc1NS(=O)(=O)c1ccc(C(F)(F)F)cc1 | > 1
59 | CC(C)(C)c1ccc(S(=O)(=O)Nc2ccc(Cl)cc2C(=O)c2ccnc(Cl)c2)cc1 | < 1
60 | Cc1c(C(=O)c2cc(Cl)ccc2NS(=O)(=O)c2ccc(C(C)(C)C)cc2)ccc[n+]1[O-] | < 1
61 | CC(C)(C)c1ccc(S(=O)(=O)Nc2ccc(Cl)cc2C(=O)c2ccnc(S(C)(=O)=O)c2)cc1 | < 1
62 | CC(C)(C)c1ccc(S(=O)(=O)Nc2cc(Cl)ccc2C(=O)c2ccncc2)cc1 | < 1
63 | O=C(c1cc[n+]([O-])cc1)c1cc(Cl)ccc1NS(=O)(=O)c1ccc(N2CCOCC2)c(F)c1 | < 1

Row | Structure (SMILES) | IC50 [µM]
64 | CC(C)(C)c1ccc(S(=O)(=O)Nc2cc(F)c(F)cc2C(=O)c2ccncc2)cc1 | < 1
65 | CC(C)(c1ccc(S(=O)(=O)Nc2ccc(Cl)cc2C(=O)c2ccncc2)cc1)c1cnco1 | < 1
66 | O=C(c1cc[n+]([O-])cc1)c1cc(Cl)ccc1NS(=O)(=O)c1ccc(N2CCOCC2)cc1 | < 1
67 | CC(C)(C)OC(=O)n1c(-c2ccc(S(=O)(=O)Nc3ccc(Cl)cc3C(=O)c3ccncc3)cc2)cc2ccccc21 | > 1
68 | CC1(c2ccc(S(=O)(=O)Nc3ccc(Cl)cc3C(=O)c3cccnc3)cc2)CCOCC1 | < 1
69 | COc1ccc(S(=O)(=O)Nc2ccc(Cl)cc2C(=O)NCCc2ccccc2)cc1 | < 1
70 | CC(C)(C)c1ccc(S(=O)(=O)Nc2ccc(Br)cc2C(=O)c2ccncc2)cc1 | < 1
71 | CC(C)(C)c1ccc(S(=O)(=O)Nc2ccc(F)cc2C(=O)c2ccncc2)cc1 | < 1
72 | CC(C)(c1ccc(S(=O)(=O)Nc2ccc(Cl)cc2C(=O)c2ccncc2)cc1)N1CCCCC1=O | < 1
73 | O=C(c1ccc[n+]([O-])c1)c1cc(Cl)ccc1NS(=O)(=O)c1ccc(N2CCOCC2)cc1 | < 1
74 | Cc1ncccc1C(=O)c1cc(Cl)ccc1NS(=O)(=O)c1ccc(C2(C)CCOCC2)cc1 | < 1
75 | C[C@@H]1CN(c2ccc(S(=O)(=O)Nc3ccc(Cl)cc3C(=O)c3ccncc3)cc2F)C[C@H](C)O1 | < 1
76 | CCC(C)(C)c1ccc(S(=O)(=O)Nc2ccc(Cl)cc2C(=O)c2ccncc2)cc1 | < 1
77 | CCOC(=O)CNC(=O)c1cc(Cl)ccc1NS(=O)(=O)c1ccc(OC)cc1 | > 1
78 | CN(C)C(=O)C(C)(C)c1ccc(S(=O)(=O)Nc2ccc(Cl)cc2C(=O)c2ccncc2)cc1 | > 1
79 | CC(C)(C)c1ccc(S(=O)(=O)Nc2ccc(Cl)cc2C(=O)c2ccnc(C#N)c2)cc1 | < 1
80 | Cc1ccc(C(=O)c2cc(Cl)ccc2NS(=O)(=O)c2ccc(C3(C)CCOCC3)cc2)c[n+]1[O-] | < 1
81 | CC(C)(c1ncco1)c1ccccc1S(=O)(=O)Nc1ccc(Cl)cc1C(=O)c1ccncc1 | < 1
82 | O=C(c1ccncc1)c1cc(Cl)ccc1NS(=O)(=O)c1ccc(N2CCOCC2)c(F)c1 | < 1
83 | CN(C)C(=O)CCc1ccc(S(=O)(=O)Nc2ccc(Cl)cc2C(=O)c2ccncc2)cc1 | > 1
84 | O=C(c1ccncc1)c1cc(Cl)ccc1NS(=O)(=O)c1ccc(N2CCS(=O)(=O)CC2)cc1 | > 1
85 | CC(=O)c1ccc(S(=O)(=O)Nc2ccc(Cl)cc2C(=O)c2ccncc2)cc1 | > 1
86 | O=C(c1ccncc1)c1cc(Cl)ccc1NS(=O)(=O)c1ccc(N2CCCCC2)cc1 | < 1
87 | Cc1ccc(C(=O)c2cc(Cl)ccc2NS(=O)(=O)c2ccc(S(C)(=O)=O)cc2)c[n+]1[O-] | < 1
